Biological target: T1, B7-1/CD28 binding (Homo sapiens, UniProt P33681)
T1 sequence (P33681 35-242 limits assumed): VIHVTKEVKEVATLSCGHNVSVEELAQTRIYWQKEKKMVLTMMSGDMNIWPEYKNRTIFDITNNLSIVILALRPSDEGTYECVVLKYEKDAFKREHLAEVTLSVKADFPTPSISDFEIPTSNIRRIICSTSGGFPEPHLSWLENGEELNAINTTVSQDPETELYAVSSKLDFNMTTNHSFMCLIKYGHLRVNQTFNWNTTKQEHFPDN
Experiment: CD28/B7-1 ELISA (B7-1/CD28 binding inhibition)
Details: CD28-Fc coated wells, B7-1-Fc-biotin/streptavidin-alkaline phosphatase detection complex, 1% DMSO
Protocol: Evaluation of B7-1/CD28 Binding Inhibition for Test Compounds
Wells are coated with 300 ng CD28-Fc in carbonate buffer (pH 9.4) overnight at 4° C., blocked with 1% bovine serum albumin in tris-buffered saline (TBS) for 1 h at 22° C. and washed 3 times in TBS prior to assay. The detection complex is formed as follows: B7-1-Fc-biotin, prepared using NHS-LC-biotin (Pierce #21335) according to the manufacturers instructions (4.1 moles biotin/mole Fc), is added at 0.8 ug/ml to streptavidin-alkaline phosphatase (Caltag Sa1008 at 1:1000 in TBS. Gradient dilutions of test compound in dimethylsulfoxide (1% final) are added to this complex and incubated 30 min. at 22° C. Detection complex (+/−inhibitors) is then added to the CD28 coated wells for 25 min. at 22° C., washed 5 times with TBS, developed with the calorimetric substrate pNPP (Pierce #34045) in diethanolamine/MgCl2 buffer (pH 9.5) and read at 405 nm. The inhibition constant (IC50) is calculated by subtracting background binding and comparing to uninhibited (DMSO alone) controls. The inhibition constant represents the concentration of test compound required to achieve 50% inhibition.

IC50 [nM] | SMILES
20 | Cn1ncc2c3[nH]n(-c4cccc(F)c4)c(=O)c3c(-c3cncc(Br)c3)nc21 [Example 4, 4-(5-Bromo-3-pyridinyl)-2-(3-fluorophenyl)-6-methyl-1,6-dihydrodipyrazalo[3,4-b:3,4-d]pyridin-3(2H)-one]
1800 | Cn1ncc2c3[nH]n(-c4ccc(Cl)cc4)c(=O)c3c(-c3ccccc3)nc21 [Example 6]
750 | O=c1c2c(-c3cccc(C(F)(F)F)c3)nc3c(cnn3-c3ccccc3)c2[nH]n1-c1cccc(F)c1 [Example 7]
200 | Cn1ncc2c3[nH]n(-c4ccc(F)cc4)c(=O)c3c(-c3cncc(Br)c3)nc21 [Example 8]
400 | Cn1ncc2c3[nH]n(-c4ccccn4)c(=O)c3c(-c3cncc(Br)c3)nc21 [Example 9]
150 | Cc1cccc(-c2nc3c(cnn3C)c3[nH]n(-c4ccccn4)c(=O)c23)c1 [Example 10]
190 | Cc1cc(-n2[nH]c3c(c(-c4cccc(Br)c4)nc4c3cnn4C)c2=O)cc(C(F)(F)F)c1 [Example 12]
70 | Cn1ncc2c3[nH]n(-c4ccccn4)c(=O)c3c(-c3cccc(Br)c3)nc21 [Example 13]
50 | Cn1ncc2c3[nH]n(-c4ccc(I)cc4)c(=O)c3c(-c3cccc(C(F)(F)F)c3)nc21 [Example 16]
58 | Cc1cc(C)cc(-n2[nH]c3c(c(-c4cccc(Br)c4)nc4c3cnn4C)c2=O)c1 [Example 17]
12 | Cn1ncc2c3[nH]n(-c4ccc([N+](=O)[O-])cc4)c(=O)c3c(-c3cccc(Br)c3)nc21 [Example 18]
990 | Cc1cccc(-c2nc3c(cnn3C)c3[nH]n(-c4cc(C)cc(C)c4)c(=O)c23)c1 [Example 19]
66 | Cc1cc(C)cc(-n2[nH]c3c(c(-c4cccc(C(F)(F)F)c4)nc4c3cnn4C)c2=O)c1 [Example 20]
48 | Cn1ncc2c3[nH]n(-c4cccc(C(=O)O)c4)c(=O)c3c(-c3cccc(C(F)(F)F)c3)nc21 [Example 21]
8 | COC(=O)c1cccc(-n2[nH]c3c(c(-c4cccc(C(F)(F)F)c4)nc4c3cnn4C)c2=O)c1 [Example 22]
290 | CCOc1ccc(-n2[nH]c3c(c(-c4cccc(C(F)(F)F)c4)nc4c3cnn4C)c2=O)nn1 [Example 23]
72 | Cn1ncc2c3[nH]n(-c4ccc(=O)[nH]n4)c(=O)c3c(-c3cccc(C(F)(F)F)c3)nc21 [Example 24]
7 | Cn1ncc2c3[nH]n(-c4ccc(Cl)c(C(=O)O)c4)c(=O)c3c(-c3cccc(C(F)(F)F)c3)nc21 [Example 25]
120 | COC(=O)c1cc(-n2[nH]c3c(c(-c4cccc(C(F)(F)F)c4)nc4c3cnn4C)c2=O)ccc1Cl [Example 26]
170 | CCOC(=O)c1cccc(-n2[nH]c3c(c(-c4cccc(C(F)(F)F)c4)nc4c3cnn4C)c2=O)c1 [Example 28]

IC50 [nM] | SMILES
41 | COC(=O)c1ccc(-n2[nH]c3c(c(-c4cccc(C(F)(F)F)c4)nc4c3cnn4C)c2=O)cc1Cl [Example 29]
16 | Cn1ncc2c3[nH]n(-c4ccc(C(=O)O)c(Cl)c4)c(=O)c3c(-c3cccc(C(F)(F)F)c3)nc21 [Example 30]
9 | COC(=O)c1ccc(-n2[nH]c3c(c(-c4cccc(Br)c4)nc4c3cnn4C)c2=O)cc1Cl [Example 31]
9 | Cn1ncc2c3[nH]n(-c4ccc(C(=O)O)c(Cl)c4)c(=O)c3c(-c3cccc(Br)c3)nc21 [Example 32]
190 | Cn1ncc2c3[nH]n(-c4ccc(C(=O)O)cc4)c(=O)c3c(-c3cccc(C(F)(F)F)c3)nc21 [Example 33]
31 | COC(=O)c1ccc(-n2[nH]c3c(c(-c4cccc(C(F)(F)F)c4)nc4c3cnn4C)c2=O)cc1 [Example 34]
98 | COC(=O)c1cc(-n2[nH]c3c(c(-c4cccc(C(F)(F)F)c4)nc4c3cnn4C)c2=O)ccc1F [Example 35]
70 | Cn1ncc2c3[nH]n(-c4ccc(F)c(C(=O)O)c4)c(=O)c3c(-c3cccc(C(F)(F)F)c3)nc21 [Example 36]
12 | COC(=O)c1ccc(-n2[nH]c3c(c(-c4cccc(C(F)(F)F)c4)nc4c3cnn4C)c2=O)cc1F [Example 37]
210 | Cn1ncc2c3[nH]n(-c4ccc(C(=O)O)c(F)c4)c(=O)c3c(-c3cccc(C(F)(F)F)c3)nc21 [Example 38]
50 | Cn1ncc2c3[nH]n(-c4ccc(F)cc4)c(=O)c3c(-c3cccc(C(F)(F)F)c3)nc21 [Example 39]
100 | Cn1ncc2c3[nH]n(-c4ccc([N+](=O)[O-])cc4)c(=O)c3c(-c3cccc(C(F)(F)F)c3)nc21 [Example 40]
400 | Cn1ncc2c3[nH]n(-c4ccccc4F)c(=O)c3c(-c3cccc(C(F)(F)F)c3)nc21 [Example 41]
900 | Cn1ncc2c3[nH]n(-c4ccc(C(C)(C)C)cc4)c(=O)c3c(-c3cccc(C(F)(F)F)c3)nc21 [Example 42]
20 | Cn1ncc2c3[nH]n(-c4cccc(F)c4)c(=O)c3c(-c3cccc(C(F)(F)F)c3)nc21 [Example 43]
1000 | Cn1ncc2c3[nH]n(-c4ccc(F)cc4F)c(=O)c3c(-c3cccc(C(F)(F)F)c3)nc21 [Example 44]
1200 | Cn1ncc2c3[nH]n(-c4nccc(C(F)(F)F)n4)c(=O)c3c(-c3cccc(C(F)(F)F)c3)nc21 [Example 45]
50 | Cn1ncc2c3[nH]n(-c4ccc(F)cc4)c(=O)c3c(-c3cccc([N+](=O)[O-])c3)nc21 [Example 46]
400 | Cn1ncc2c3[nH]n(-c4ccc(F)cc4)c(=O)c3c(-c3cccc(N)c3)nc21 [Example 47]
50 | Cn1ncc2c3[nH]n(-c4ccc(N)cc4)c(=O)c3c(-c3cccc(C(F)(F)F)c3)nc21 [Example 48]

IC50 [nM] | SMILES
4 | Cn1ncc2c3[nH]n(-c4cccc(F)c4)c(=O)c3c(-c3cccc([N+](=O)[O-])c3)nc21 [Example 50]
2100 | CCOC(=O)c1scc(C)c1-n1[nH]c2c(c(-c3cccc(C(F)(F)F)c3)nc3c2cnn3C)c1=O [Example 51]
1700 | Cc1csc(C(=O)O)c1-n1[nH]c2c(c(-c3cccc(C(F)(F)F)c3)nc3c2cnn3C)c1=O [Example 52]
30 | Cn1ncc2c3[nH]n(-c4cccc(F)c4)c(=O)c3c(-c3cccc(C#N)c3)nc21 [Example 53]
1500 | Cn1ncc2c3[nH]n(-c4cccc(F)c4)c(=O)c3c(-c3cccc(C(N)=O)c3)nc21 [Example 54]
1900 | Cn1ncc2c3[nH]n(-c4cccc(F)c4)c(=O)c3c(-c3cccc(S(C)(=O)=O)c3)nc21 [Example 55]
330 | Cn1ncc2c3[nH]n(-c4cccc(F)c4)c(=O)c3c(-c3cccc([S+](C)[O-])c3)nc21 (stereo not shown) [Example 56]
25 | Cn1ncc2c3[nH]n(-c4ccc(OCc5ccccc5)cc4)c(=O)c3c(-c3cccc(C(F)(F)F)c3)nc21 [Example 58]
20 | Cn1ncc2c3[nH]n(-c4cccc(OCc5ccccc5)c4)c(=O)c3c(-c3cccc(C(F)(F)F)c3)nc21 [Example 59]
70 | Cn1ncc2c3[nH]n(-c4cccc(F)c4)c(=O)c3c(-c3cccc(C(=O)O)c3)nc21 [Example 60]
70 | O=c1c2c(-c3cccc(C(F)(F)F)c3)nc3c(cnn3Cc3ccccc3)c2[nH]n1-c1ccc(F)cc1 [Example 64]
50 | O=c1c2c(-c3cccc(C(F)(F)F)c3)nc3[nH]ncc3c2[nH]n1-c1ccc(F)cc1 [Example 65]
800 | O=c1c2c(-c3cccc(C(F)(F)F)c3)nc3c(cnn3CCO)c2[nH]n1-c1ccc(F)cc1 [Example 66]
780 | CCn1ncc2c3[nH]n(-c4ccc(F)cc4)c(=O)c3c(-c3cccc(C(F)(F)F)c3)nc21 [Example 67]
90 | CCCn1ncc2c3[nH]n(-c4ccc(F)cc4)c(=O)c3c(-c3cccc(C(F)(F)F)c3)nc21 [Example 68]
40 | Cn1ncc2c3[nH]n(-c4cccc(F)c4)c(=O)c3c(-c3cc(Cl)cc(Cl)c3)nc21 [Example 73, 4-(3,5-Dichlorophenyl)-2-(3-fluorophenyl)-6-methyl-1,6-dihydrodypyrazolo[3,4-b:3′,4′-d]pyridin-3(2H)-one]
105 | Cn1ncc2c3[nH]n(-c4cccc(F)c4)c(=O)c3c(-c3ccsc3)nc21 [Example 74]
82 | COc1cccc(-c2nc3c(cnn3C)c3[nH]n(-c4cccc(F)c4)c(=O)c23)c1 [Example 75]
295 | Cn1ncc2c3[nH]n(-c4cccc(F)c4)c(=O)c3c(-c3ccc4c(c3)OCO4)nc21 [Example 76]
188 | CC1CN(c2nc3c(cnn3C)c3[nH]n(-c4cccc(F)c4)c(=O)c23)CC(C)O1 (stereo not shown) [Example 81, 4-(2,6-Dimethyl-4-morpholinyl)-2-(3-fluorophenyl)-6-methyl-1,6-dihydrodipyrazolo[3,4-b:3′-4′-d]pyridin-3(2H)-one]

SMILES | IC50 [nM]
Cn1ncc2c3[nH]n(-c4ccc(-c5ccccc5)cc4)c(=O)c3c(-c3cccc(C(F)(F)F)c3)nc21 [Example 57] | 39
